In US7030267B2, “Cycloproply β-amino acid derivatives” (Warner-Lambert Company, LLC, priority 2003, dated 2006):

With CC1(C)CC1(CN)C(=O)O (stereo not shown) the melting point was 254 to 256 °C.

CCC(CC)C1CC1(CN)C(=O)O (stereo not shown) gave a melting point of 255 to 257 °C.

For NCC1(C(=O)O)CC1C1CCCCC1 (stereo not shown), the melting point was 270 °C (dec.).

With NCC1(C(=O)O)CC12CCCC2 (stereo not shown) the melting point was 231 to 235 °C (dec.).

CC(C)C1CC1(CN)C(=O)O.Cl (stereo not shown) gave a melting point of 245 to 246 °C.

With CCCC1(CCC)CC1(CN)C(=O)O (stereo not shown) the melting point was 255 to 257 °C.

For Cl.NCC1(C(=O)O)CC12CCCCC2 (stereo not shown) [Example 1, 1-AMINOMETHYL-SPIRO[2.5]OCTANE-1-CARBOXYLIC ACID HYDROCHLORIDE], the melting point was > 250 °C (dec.).

With CC(C)CC1CC1(CN)C(=O)O.Cl (stereo not shown) [Example 6, 1-AMINOMETHYL-2-ISOBUTYL-CYCLOPROPANECARBOXYLIC ACID HYDROCHLORIDE] the melting point was > 220 °C (dec.).

With Cl.NCC1(C(=O)O)CC12CCCCC2 (stereo not shown) [Example 14] the melting point was 240 to 242 °C.

CC(C)CC1CC1(CN)C(=O)O.Cl (stereo not shown) [Example 15] showed a melting point of 254 to 255 °C.
